Measurements reported in US7507732B2, “Cyclopentapyridine and tetrahydroquinoline derivatives” (Pfizer Inc., priority 2005, dated 2009).
pKi: −log10 of the molar value. Like-named read-outs stand apart in the source and are kept apart here.

Columns and labels:
[1] = biological target: T1, human 5HT2c receptor (Homo sapiens, UniProt P28335); assay: 5HT2c Binding Procedure (competition binding against 3H-5HT, membranes of transfected Swiss 3T3 mouse cells)
T1 construct: expressed in transfected cells; host or cells: Swiss 3T3 mouse cells (ATCC)
T1 sequence (P28335 33-458): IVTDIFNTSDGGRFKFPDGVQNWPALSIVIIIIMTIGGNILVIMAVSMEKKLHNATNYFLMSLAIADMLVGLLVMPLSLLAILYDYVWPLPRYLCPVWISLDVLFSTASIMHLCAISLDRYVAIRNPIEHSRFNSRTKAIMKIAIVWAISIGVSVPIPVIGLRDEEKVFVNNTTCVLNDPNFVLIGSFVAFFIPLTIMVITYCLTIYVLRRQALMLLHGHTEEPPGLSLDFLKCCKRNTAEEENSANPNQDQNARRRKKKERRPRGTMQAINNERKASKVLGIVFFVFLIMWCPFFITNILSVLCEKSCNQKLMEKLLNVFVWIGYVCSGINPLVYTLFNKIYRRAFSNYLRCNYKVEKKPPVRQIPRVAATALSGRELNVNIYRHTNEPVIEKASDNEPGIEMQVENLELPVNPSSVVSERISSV
Method: Affinity of compounds at the serotonin 5HT2c binding site is determined by competition binding in Swiss 3T3 mouse cells (available from the American Type Culture Collection (ATCC), Manassas, Va.) transfected with the human 5HT2c receptor against ^3H-5HT.

[2] = biological target: human 5HT2b receptor (Homo sapiens, UniProt P41595); assay: 5HT2b Binding Procedure (competition binding with 3H-LSD, CHO cell membranes)
Method: Affinity of compounds for the human 5HT2b receptor is determined by competition binding using membranes prepared from Chinese hamster ovary (CHO) cells containing the tetracycline operator (Flp-In Trex system—Invitrogen) that were engineered to express the human 5HT2b receptor. […] The supernatant was removed and discarded, while the pellet was resuspended in homogenization buffer, then centrifuged for 20 minutes at 25,000×g at 4° C. The supernatant was discarded while the pellet (containing membranes) was resuspended in homogenization buffer, and the membranes were aliquoted and frozen at −80° C. The binding assay was set up in 96-well plates, which contained 2 μl of test compound (in 100% DMSO) then 100 μl of ^3H-LSD (final concentration=3 nM) diluted in assay buffer (50 mM Tris pH 7.4, 4 mM CaCl2, 0.1% Ascorbic Acid), followed by the addition of 100 μl of membranes (approximately 15 μg membrane protein, diluted in assay buffer) from 5HT2b -expressing cells. 1 μM mianserin was used to calculate non-specific binding. The assay plates were incubated at 37° C. for 60 minutes, then the assay was terminated by filtration onto 96-well UniFilter™ plates (with GF/C filters—from PerkinElmer™) which were pre-soaked in 0.3% PEI. The filterplates were washed 2× with cold wash buffer (50 mM Tris, pH 7.4), then dried, scintillation fluid added and radioactivity determined in a Wallac Microbeta™ plate scintillation counter (PerkinElmer™). Concentration-response curves of the % inhibition of specific binding by test compounds versus the test compound concentration, was used to determine the IC50 for each compound and the Ki value calculated based on the Cheng-Prusoff equation (Ki=IC50/(1+(L/Kd)), where L is the concentration of the radioligand used in the binding assay and the Kd is based on previous saturation studies with the radioligand.

[3] = biological target: T2, rat 5HT2a receptor (Rattus norvegicus, UniProt P14842); assay: 5HT2a Binding Procedure (competition binding using 125I-DOI, membranes of transfected NIH 3T3 mouse cells)
T2 construct: expressed in transfected cells; host or cells: NIH 3T3 mouse cells
Method: Affinity of compounds at the serotonin 5HT2a binding site is determined by competition binding in NIH 3T3 mouse cells transfected with the rat 5HT2a receptor using 125I-DOI.

[4] = cited from earlier work
[5] = receptor binding, 5HT2c, read-out: 2cKi
[6] = receptor binding, 5HT2a, read-out: 2aKi

T2 sequence (P14842 whole entry): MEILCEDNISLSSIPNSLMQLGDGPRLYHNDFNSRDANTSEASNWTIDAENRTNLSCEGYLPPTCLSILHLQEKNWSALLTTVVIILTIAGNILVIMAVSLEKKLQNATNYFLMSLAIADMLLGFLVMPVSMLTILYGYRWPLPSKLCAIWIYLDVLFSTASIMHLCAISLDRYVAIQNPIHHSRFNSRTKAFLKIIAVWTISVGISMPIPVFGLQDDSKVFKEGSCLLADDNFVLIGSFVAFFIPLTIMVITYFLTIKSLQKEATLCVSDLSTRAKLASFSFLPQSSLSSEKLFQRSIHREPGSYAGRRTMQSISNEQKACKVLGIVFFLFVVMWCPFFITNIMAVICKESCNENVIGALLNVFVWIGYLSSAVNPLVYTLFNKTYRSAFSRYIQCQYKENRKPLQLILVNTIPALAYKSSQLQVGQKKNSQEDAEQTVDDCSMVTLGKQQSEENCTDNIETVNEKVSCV
Chain of human 5HT2b receptor (P41595 whole entry): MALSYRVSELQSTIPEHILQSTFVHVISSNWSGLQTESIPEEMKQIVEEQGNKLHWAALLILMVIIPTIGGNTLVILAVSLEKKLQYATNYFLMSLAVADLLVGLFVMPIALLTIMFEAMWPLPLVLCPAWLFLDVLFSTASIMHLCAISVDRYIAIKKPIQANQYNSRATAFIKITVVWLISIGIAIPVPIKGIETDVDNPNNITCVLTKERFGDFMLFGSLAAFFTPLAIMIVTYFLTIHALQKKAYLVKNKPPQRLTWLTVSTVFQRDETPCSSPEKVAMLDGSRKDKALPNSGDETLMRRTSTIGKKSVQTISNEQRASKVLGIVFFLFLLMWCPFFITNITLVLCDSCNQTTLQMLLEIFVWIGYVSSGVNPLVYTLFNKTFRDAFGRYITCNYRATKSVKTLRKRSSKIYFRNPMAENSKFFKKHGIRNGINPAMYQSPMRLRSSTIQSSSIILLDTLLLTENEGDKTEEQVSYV

SMILES | pKi [1] | pKi [2] | pKi [3] | pKi [1, 5] | pKi [3, 6] | further results
Fc1ccc(F)c(CO[C@H]2CCc3ccc(N4CCNCC4)nc32)c1 [Example 1A-37, (7S)-7-[(2,5-difluorobenzyl)oxy]-2-piperazin-1-yl-6,7-dihydro-5H-cyclopenta[b]pyridine] | 7.58 | 6.80 | 7.60 | – | – | –
O=C1Cc2cc(CCN3CCN(c4nsc5ccccc45)CC3)c(Cl)cc2N1 [Ziprasidone, 5-[2-[4-(1,2-benzisothiazol-3-yl)piperazin-1-yl]ethyl]-6-chloroindolin-2-one] | – | – | – | – | – | half-life ([4]; in vivo): 6 to 7 h; protein binding ([4]; in vivo): extensive; Oral bioavailability ([4]; taken with food): approximately 60%
c1ccc2c(O[C@H]3CCc4ccc(N5CCNCC5)nc43)cncc2c1 [Example 3A-83, 4-{[(7S)-2-piperazin-1-yl-6,7-dihydro-5H-cyclopenta[b]pyridin-7-yl]oxy}isoquinoline] | 7.75 | – | 7.33 | – | – | pKi ([2]; read-out: 2bKi, receptor binding, 5HT2b): 6.84
C[C@@H]1CNCCN1c1ccc2c(n1)[C@@H](Oc1ccccc1F)CC2 [Example 4A-4] | – | 7.68 | – | 8.29 | 8.38 | –
Fc1cc2c(c(O[C@H]3CCc4ccc(N5CCNCC5)nc43)c1)CCC2 [Example 3A-76, (7S)-7-[(6-fluoro-2,3-dihydro-1H-inden-4-yl)oxy]-2-piperazin-1-yl-6,7-dihydro-5H-cyclopenta[b]pyridine] | – | 7.28 | – | 8.52 | 8.55 | –
C[C@@H]1CNCCN1c1ccc2c(n1)[C@@H](OCc1cccc(C#N)c1)CC2 [Example 2A-4, 3-[({(7S)-2-[(2R)-2-methylpiperazin-1-yl]-6,7-dihydro-5H-cyclopenta[b]pyridin-7-yl}oxy)methyl]benzonitrile] | – | 6.10 | – | 8.16 | 7.47 | –
